Source: patent US20160355530A1, “HEPATITIS C INHIBITORS AND USES THEREOF” (AbbVie Inc., priority 2010, published 2016)
Like-named read-outs stand apart in the source and are kept apart here.

How the values were obtained:
[1] = tested on: HCV 1b-BB7 subgenomic replicon; assay: microbe, parasite or virus in culture; format: cell-based, HCV genotype 1b; settings: Hepatitis C virus, stable replicon
[2] = molecular target: T1, HCV NS5B polymerase 1a-H77 (Hepatitis C virus genotype 1a, UniProt P27958); assay: biochemical; design: species or system HCV genotype 1a
T1 construct: six-histidine tag; made in house; host or cells: E. coli
T1 sequence (P27958 2421-2990): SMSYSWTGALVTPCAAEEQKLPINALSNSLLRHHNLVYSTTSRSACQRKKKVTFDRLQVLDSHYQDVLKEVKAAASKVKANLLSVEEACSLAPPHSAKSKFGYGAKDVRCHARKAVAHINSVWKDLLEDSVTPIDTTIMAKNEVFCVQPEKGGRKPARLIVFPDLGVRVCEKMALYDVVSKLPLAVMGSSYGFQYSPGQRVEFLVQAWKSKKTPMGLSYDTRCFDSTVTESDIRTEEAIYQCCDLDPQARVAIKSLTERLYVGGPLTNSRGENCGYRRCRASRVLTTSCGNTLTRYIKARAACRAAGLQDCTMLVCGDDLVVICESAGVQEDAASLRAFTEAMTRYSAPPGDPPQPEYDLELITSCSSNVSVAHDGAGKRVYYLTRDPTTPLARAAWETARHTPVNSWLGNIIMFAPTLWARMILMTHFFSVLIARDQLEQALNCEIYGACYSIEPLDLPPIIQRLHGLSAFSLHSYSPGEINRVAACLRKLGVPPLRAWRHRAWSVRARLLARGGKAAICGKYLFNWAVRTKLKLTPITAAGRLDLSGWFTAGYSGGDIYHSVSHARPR
In short: (§1)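 Incorporation of [3H]UTP (0.284 μM), alongside 20 μM each CTP and ATP, into RNA copied from a 5 nM 2.1 kb genotype 1b negative-strand template was measured after 3 h at 30° C using purified His-tagged NS5B truncated at residue 570. Product was spermine-precipitated, filtered and scintillation-counted; nonlinear regression gave IC50.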

[3] = tested on: HCV NS5B polymerase 1a-H77-C316Y; assay: biochemical; design: species or system HCV genotype 1a; settings: ratio of enzyme IC50s, 1a H77-C316Y / 1a H77
In short: as §1

[4] = molecular target: T2, HCV NS5B polymerase 1a-H77-C316Y (Hepatitis C virus genotype 1a, UniProt P27958, C2736Y); assay: biochemical; design: species or system HCV genotype 1a
T2 construct: six-histidine tag; made in house; host or cells: E. coli
T2 sequence (P27958 2421-2990 C2736Y): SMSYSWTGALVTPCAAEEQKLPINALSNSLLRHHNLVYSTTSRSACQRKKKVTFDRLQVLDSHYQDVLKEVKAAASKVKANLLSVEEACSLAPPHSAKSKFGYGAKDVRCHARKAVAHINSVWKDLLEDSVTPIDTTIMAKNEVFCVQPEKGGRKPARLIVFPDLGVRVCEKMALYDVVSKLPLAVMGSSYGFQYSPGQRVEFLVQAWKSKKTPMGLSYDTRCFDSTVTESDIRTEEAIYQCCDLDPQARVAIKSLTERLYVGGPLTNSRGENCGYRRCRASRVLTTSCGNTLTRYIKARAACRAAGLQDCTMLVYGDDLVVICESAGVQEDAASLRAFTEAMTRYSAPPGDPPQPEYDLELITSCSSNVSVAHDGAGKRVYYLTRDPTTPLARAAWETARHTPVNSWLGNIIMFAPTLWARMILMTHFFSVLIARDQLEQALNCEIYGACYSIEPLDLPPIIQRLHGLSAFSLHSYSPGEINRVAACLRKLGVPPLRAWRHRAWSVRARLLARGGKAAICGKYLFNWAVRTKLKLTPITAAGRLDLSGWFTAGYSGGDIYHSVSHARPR
In short: as §1

[5] = molecular target: T3, HCV NS5B polymerase 1b BK strain (Hepatitis C virus genotype 1b, UniProt P26663); assay: HCV NS5B polymerase enzymatic inhibition assay, strain 1b BK; format: biochemical
T3 construct: six-histidine tag; made in house; host or cells: E. coli
T3 sequence (P26663 2420-2989): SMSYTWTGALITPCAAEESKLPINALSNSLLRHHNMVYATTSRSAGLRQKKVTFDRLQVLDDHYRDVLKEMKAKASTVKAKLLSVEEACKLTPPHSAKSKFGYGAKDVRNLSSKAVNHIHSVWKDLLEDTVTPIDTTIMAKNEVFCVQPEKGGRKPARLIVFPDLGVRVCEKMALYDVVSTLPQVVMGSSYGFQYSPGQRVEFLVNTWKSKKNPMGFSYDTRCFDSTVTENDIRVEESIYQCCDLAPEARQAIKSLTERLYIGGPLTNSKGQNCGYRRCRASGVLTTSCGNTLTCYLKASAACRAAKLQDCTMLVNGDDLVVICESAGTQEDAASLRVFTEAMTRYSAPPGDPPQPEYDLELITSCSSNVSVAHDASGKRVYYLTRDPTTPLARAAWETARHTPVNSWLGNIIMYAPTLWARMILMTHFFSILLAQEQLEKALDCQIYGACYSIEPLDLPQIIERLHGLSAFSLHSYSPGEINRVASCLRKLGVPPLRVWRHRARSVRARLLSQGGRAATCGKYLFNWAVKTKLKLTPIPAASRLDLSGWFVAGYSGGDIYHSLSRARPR
In short: as §1

[6] = tested on: HCV 1a-H77 subgenomic replicon; assay: microbe, parasite or virus in culture; format: cell-based, HCV genotype 1a; settings: Hepatitis C virus, stable replicon
[7] = tested on: chimeric replicon with genotype 4a NS5B; assay: microbe, parasite or virus in culture; format: cell-based, HCV genotype 4a; settings: Hepatitis C virus, read-out: 4a chimera 5% FBS EC50
[8] = tested on: chimeric replicon with genotype 3a NS5B; assay: microbe, parasite or virus in culture; format: cell-based, HCV genotype 3a; settings: Hepatitis C virus, read-out: 3a chimera 5% FBS EC50
[9] = tested on: chimeric replicon with 2a-J6CF-derived NS5B; assay: microbe, parasite or virus in culture; format: cell-based, HCV genotype 2a; settings: Hepatitis C virus, read-out: 2a chimera 5% FBS EC50
[10] = strain 1b BB7, 5% FBS + 40% human plasma, read-out: 1b BB7 5% FBS + 40% Human Plasma EC50
[11] = strain 1b BB7, 5% FBS, no human plasma, read-out: 1b BB7 5% FBS EC50
[12] = strain 1b BB7, 5% FBS, read-out: 1b BB7 5% FBS EC50
[13] = enzyme, strain 1a H77, read-out: HCV Polymerase Strain 1a H77 IC50
[14] = enzyme, strain 1b BK, read-out: HCV Polymerase Strain 1b BK IC50
[15] = 5% FBS, absence of human plasma, read-out: Stable Replicon 1a H77 5% FBS EC50
[16] = strain 1a H77, 5% FBS + 40% human plasma, read-out: 1a H77 5% FBS + 40% Human Plasma EC50
[17] = strain 1a H77, 5% FBS, no human plasma, read-out: 1a H77 5% FBS EC50
[18] = strain 1a H77, 5% FBS, read-out: 1a H77 5% FBS EC50

| Structure (SMILES) | EC50 [1, 10] [nM] | EC50 [1, 11] [nM] | EC50 [1, 12] [nM] | IC50 [2, 13] [nM] | C316Y/1a Fold Resistance [3] [fold] | IC50 [4] [nM] | IC50 [5, 14] [nM] | EC50 [6, 15] [nM] | EC50 [6, 16] [nM] | EC50 [6, 17] [nM] | EC50 [6, 18] [nM] | EC50 [7] [nM] | EC50 [8] [nM] | EC50 [9] [nM] | IC50 [2] [nM] | IC50 [5] [nM] |
| --- | --- | --- | --- | --- | --- | --- | --- | --- | --- | --- | --- | --- | --- | --- | --- | --- |
| CS(=O)(=O)N(CCCC(=O)N1CCOCC1)c1cc2oc(-c3ccc(F)cc3)c(-c3ncc[nH]3)c2cc1C1CC1 [Example 103, N-[5-cyclopropyl-2-(4-fluorophenyl)-3-(1H-imidazol-2-yl)-1-benzofuran-6-yl]-N-[4-(morpholin-4-yl)-4-oxobutyl]methanesulfonamide] | 114 | 13.9 | 13.9 | 7.9 | 50 | 400 | 55 | 44.6 | 563 | 44.6 | 44.6 | – | – | – | – | – |
| CS(=O)(=O)N(CCCC(=O)N1CCCCC1)c1cc2oc(-c3ccc(F)cc3)c(-c3ncc[nH]3)c2cc1C1CC1 [Example 104, N-[5-cyclopropyl-2-(4-fluorophenyl)-3-(1H-imidazol-2-yl)-1-benzofuran-6-yl]-N-[4-oxo-4-(piperidin-1-yl)butyl]methanesulfonamide] | 268 | 13.3 | 13.3 | 6.9 | 26 | 180 | 52 | 31.9 | 502 | 31.9 | 31.9 | – | – | – | – | – |
| CS(=O)(=O)NC(=O)CCCN(c1cc2oc(-c3ccc(F)cc3)c(-c3ncc[nH]3)c2cc1C1CC1)S(C)(=O)=O [Example 105, 4-{[5-cyclopropyl-2-(4-fluorophenyl)-3-(1H-imidazol-2-yl)-1-benzofuran-6-yl](methylsulfonyl)amino}-N-(methylsulfonyl)butanamide] | 519 | 68.6 | 68.6 | 8 | 14 | 111 | 16 | 108 | 1060 | 108 | 108 | – | – | – | – | – |
| CC(C)(O)C(=O)CCN(c1cc2oc(-c3ccc(F)cc3)c(-c3ncc[nH]3)c2cc1C1CC1)S(C)(=O)=O [Example 106, N-[5-cyclopropyl-2-(4-fluorophenyl)-3-(1H-imidazol-2-yl)-1-benzofuran-6-yl]-N-(4-hydroxy-4-methyl-3-oxopentyl)methanesulfonamide] | 221 | 27.3 | 27.3 | 7.3 | 14 | 101 | 19 | 54.4 | 915 | 54.4 | 54.4 | – | – | – | – | – |
| CS(=O)(=O)N(CCC(O)CO)c1cc2oc(-c3ccc(F)cc3)c(-c3ncc[nH]3)c2cc1C1CC1 (stereo not shown) [Example 110, N-[5-cyclopropyl-2-(4-fluorophenyl)-3-(1H-imidazol-2-yl)-1-benzofuran-6-yl]-N-(3,4-dihydroxybutyl)methanesulfonamide] | 315 | 16.7 | 16.7 | 6.5 | 19 | 125 | 12 | 14.3 | 206 | 14.3 | 14.3 | – | – | – | – | – |
| CS(=O)(=O)N(CCN)c1cc2oc(-c3ccc(F)cc3)c(-c3ncc[nH]3)c2cc1C1CC1 [Example 111, N-(2-aminoethyl)-N-[5-cyclopropyl-2-(4-fluorophenyl)-3-(1H-imidazol-2-yl)-1-benzofuran-6-yl]methanesulfonamide] | 92 | 40.4 | 40.4 | 9.9 | 201 | 2000 | 111 | 152 | 1000 | 152 | 152 | – | – | – | – | – |
| CS(=O)(=O)N(CCCN)c1cc2oc(-c3ccc(F)cc3)c(-c3ncc[nH]3)c2cc1C1CC1 [Example 112, N-(3-aminopropyl)-N-[5-cyclopropyl-2-(4-fluorophenyl)-3-(1H-imidazol-2-yl)-1-benzofuran-6-yl]methanesulfonamide] | 101 | 34 | 34 | 10.6 | 82 | 868 | 51 | 262 | 1030 | 262 | 262 | – | – | – | – | – |
| CS(=O)(=O)N(CCCN1CCCCC1)c1cc2oc(-c3ccc(F)cc3)c(C3=NOCCN3)c2cc1C1CC1 [Example 130, N-[5-cyclopropyl-3-(5,6-dihydro-4H-1,2,4-oxadiazin-3-yl)-2-(4-fluorophenyl)-1-benzofuran-6-yl]-N-[3-(piperidin-1-yl)propyl]methanesulfonamide] | 110 | 26 | 26 | 20.5 | 20 | 412 | 229 | 44.2 | 296 | 44.2 | 44.2 | 416 | 42.6 | 74 | – | – |
| COc1ccc(CN(c2cc3oc(-c4ccc(F)cc4)c(-c4nc(Cl)c[nH]4)c3cc2C2CC2)S(C)(=O)=O)cc1 [Example 159, N-[3-(4-chloro-1H-imidazol-2-yl)-5-cyclopropyl-2-(4-fluorophenyl)-1-benzofuran-6-yl]-N-(4-methoxybenzyl)methanesulfonamide] | 10000 | 544 | 544 | 45 | 178 | 8000 | 438 | 990 | 10000 | 990 | 990 | – | – | – | – | – |
| CC(C)CCN(c1cc2oc(-c3ccc(F)cc3)c(-c3nccc(=O)[nH]3)c2cc1C1CC1)S(C)(=O)=O [Example 161, N-[5-cyclopropyl-2-(4-fluorophenyl)-3-(6-oxo-1,6-dihydropyrimidin-2-yl)-1-benzofuran-6-yl]-N-(3-methylbutyl)methanesulfonamide] | 10000 | 188 | 188 | 47.5 | 5 | 219 | 791 | 124 | 7910 | 124 | 124 | – | – | – | – | – |
| COc1ccc(CN(c2cc3oc(-c4ccc(F)cc4)c(-c4ncc[nH]4)c3cc2OC(C)C)S(C)(=O)=O)cc1 [Example 170, N-[2-(4-fluorophenyl)-3-(1H-imidazol-2-yl)-5-isopropoxy-1-benzofuran-6-yl]-N-(4-methoxybenzyl)methanesulfonamide] | – | 121 | 121 | 36 | 556 | 20000 | 338 | 540 | – | 540 | 540 | – | – | – | – | – |
| COc1ccc(CN(c2cc3oc(-c4ccc(F)cc4)c(-c4ncc(C)[nH]4)c3cc2C2CC2)S(C)(=O)=O)cc1 [Example 188, N-[5-cyclopropyl-2-(4-fluorophenyl)-3-(5-methyl-1H-imidazol-2-yl)-1-benzofuran-6-yl]-N-(4-methoxybenzyl)methanesulfonamide] | 2030 | 208 | 208 | 15.4 | 15 | 224 | 55 | 399 | 8460 | 399 | 399 | – | – | – | – | – |
| CS(=O)(=O)N(Cc1cc(O)no1)c1cc2oc(-c3ccc(F)cc3)c(-c3ncc[nH]3)c2cc1C1CC1 [Example 190, N-[5-cyclopropyl-2-(4-fluorophenyl)-3-(1H-imidazol-2-yl)-1-benzofuran-6-yl]-N-[(3-hydroxy-1,2-oxazol-5-yl)methyl]methanesulfonamide] | 1370 | – | 116 | – | 112 | 500 | – | 263 | 3460 | – | 263 | – | – | – | 4.5 | 26 |
